# According to US20260256792A1, “TREATMENT OF CHRONIC SPONTANEOUS URTICARIA BY ADMINISTERING (R)-2-[3-[4-AMINO-3-(2-FLUORO-4-PHENOXY-PHENYL)PYRAZOLO[3,4-D]PYRIMIDIN-1-YL]PIPERIDINE-1-CARBONYL]-4-METHYL-4-[4-(OXETAN-3-YL)PIPERAZIN-1-YL]PENT-2-ENENITRILE” (priority 2023, published 2026):
# Tested on: moderate-to-severe chronic spontaneous urticaria (CSU)
# Assay: Phase 2 CSU study: hives severity score over 7 days (HSS7)
# Type: in vivo, human
# Parameters: key to HSS7 Change from baseline, Median / HSS7, Median / HSS7, Max / HSS7 Change from baseline, Q1 / HSS7 Change from baseline, Q3 / HSS7 Change from baseline, Max: 7-day sum of daily hive scores, each 0 = none to 3 = >50 hives
# Conditions: 400 mg BID
# Excerpt: The study comprises a 12 week, randomized, double-blind, placebo-controlled, multi-center, dose-ranging efficacy and safety phase, followed by a 40 week open label extension (OLE) phase (see FIG. 1).
# The study consists of three phases and an optional OLE phase.
# The UAS is a validated PRO measure. The daily UAS is the sum of the daily Hive Severity Score (HSS, ranging from 0=None to 3=more than 50 hives) and the daily Itch Severity Score (ISS, ranging from 0=None to 3=intense), the 2 key urticaria signs and symptoms which are wheals and itch. The daily UAS scores range from 0 to 6 point/day. Daily UAS scores are summed over 7-day period to create the UAS7, ranging from 0 to 42, and are composed of the HSS7 and ISS7 components. […] Patients were to complete the UAS using the e-diary. The e-diary was to be used once daily on the same time of each day recording of participant's answers to the urticaria activity score over 7 days (UAS7) questionnaire. For participants who entered the OLE phase, their answers to the UAS7 questionnaire were also to be collected from Week 20 to Week24 and from Week 48 to Week 52.
# The following secondary endpoints were to be analyzed using the same approach as for the primary endpoint: • Change from baseline in UAS7 at Week 4 • Change from baseline in UAS7 at Week 12 (for US and US reference countries) • Change from baseline in ISS7 at Week 12 (except US and US reference countries) • Change from baseline in HSS7 at Week 12
# [1] = Omalizumab-Naïve Population, last block under Week 12, double-blind period, WOCF imputation
# [2] = Week 1, Omalizumab-Naïve Population
# [3] = Week 2, Omalizumab-Naïve Population
# [4] = Week 3, Omalizumab-Naïve Population
# [5] = Week 4, Omalizumab-Naïve Population
# [6] = Week 5, Omalizumab-Naïve Population
# [7] = Week 6, Omalizumab-Naïve Population
# [8] = Week 7, Omalizumab-Naïve Population
# [9] = Week 8, Omalizumab-Naïve Population
smiles,measurement,setting,value
"CC(C)(C=C(C#N)C(=O)N1CCC[C@@H](n2nc(-c3ccc(Oc4ccccc4)cc3F)c3c(N)ncnc32)C1)N1CCN(C2COC2)CC1 [rilzabrutinib, (R)-2-[3-[4-amino-3-(2-fluoro-4-phenoxy-phenyl)pyrazolo[3,4-d]pyrimidin-1-yl]piperidine-1-carbonyl]-4-methyl-4-[4-(oxetan-3-yl)piperazin-1-yl]pent-2-enenitrile]","HSS7, Max",[1],21.0
same,"HSS7, Min",[1],0.0
same,"HSS7 Change from baseline, Max",[1],0.0
same,"HSS7 Change from baseline, Mean (SD)",[1],−7.80 (6.87)
same,"HSS7 Change from baseline, Median",[1],−5.00
same,"HSS7 Change from baseline, Min",[1],−16.0
same,"HSS7 Change from baseline, Q1",[1],−14.00
same,"HSS7 Change from baseline, Q3",[1],−4.00
same,"HSS7 Percent change from baseline, Max",[1],0.0%
same,"HSS7 Percent change from baseline, Mean (SD)",[1],−53.67 (44.85) percent
same,"HSS7 Percent change from baseline, Median",[1],−41.67%
same,"HSS7 Percent change from baseline, Min",[1],−100.0%
same,"HSS7 Percent change from baseline, Q1",[1],−100.00%
same,"HSS7 Percent change from baseline, Q3",[1],−26.67%
same,HSS7 % Change difference for rilzabrutinib vs.placebo LS Mean (95% CI),"Week 1, ITT Population",−25.04 %
same,HSS7 % Change from baseline LS Mean (SE),"Week 1, ITT Population",−33.74 (5.55) %
same,HSS7 Change difference for rilzabrutinib vs.placebo LS Mean (95% CI),"Week 1, ITT Population","−2.95 (−5.36, −0.55)"
same,HSS7 Change from baseline LS Mean (SE),"Week 1, ITT Population",−4.79 (0.75)
same,HSS7 Postbaseline Mean (SD),"Week 1, ITT Population",9.32 (5.77)
same,HSS7 % Change difference for rilzabrutinib vs.placebo LS Mean (95% CI),[2],−27.07 %
same,HSS7 % Change from baseline LS Mean (SE),[2],−34.51 (5.97) %
same,HSS7 Change difference for rilzabrutinib vs.placebo LS Mean (95% CI),[2],"−3.10 (−5.66, −0.53)"
same,HSS7 Change from baseline LS Mean (SE),[2],−4.73 (0.80)
same,HSS7 Postbaseline Mean (SD),[2],9.26 (5.76)
same,HSS7 Postbaseline Mean (SD),"Week 1, Omalizumab-Naïve Population with Outlier Removed from Analysis",9.26 (5.76)
same,HSS7 % Change difference for rilzabrutinib vs.placebo LS Mean (95% CI),"Week 2, ITT Population",−18.39 %
same,HSS7 % Change from baseline LS Mean (SE),"Week 2, ITT Population",−34.94 (5.70) %
same,HSS7 Change difference for rilzabrutinib vs.placebo LS Mean (95% CI),"Week 2, ITT Population","−2.23 (−4.31, −0.14)"
same,HSS7 Change from baseline LS Mean (SE),"Week 2, ITT Population",−5.15 (0.79)
same,HSS7 Postbaseline Mean (SD),"Week 2, ITT Population",9.11 (5.66)
same,HSS7 % Change difference for rilzabrutinib vs.placebo LS Mean (95% CI),[3],−19.53 %
same,HSS7 % Change from baseline LS Mean (SE),[3],−34.80 (6.07) %
same,HSS7 Postbaseline Mean (SD),[3],9.27 (5.49)
same,HSS7 Postbaseline Mean (SD),"Week 2, Omalizumab-Naïve Population with Outlier Removed from Analysis",9.27 (5.49)
same,HSS7 % Change difference for rilzabrutinib vs.placebo LS Mean (95% CI),"Week 3, ITT Population",−19.09 %
same,HSS7 % Change from baseline LS Mean (SE),"Week 3, ITT Population",−38.24 (5.88) %
same,HSS7 Change difference for rilzabrutinib vs.placebo LS Mean (95% CI),"Week 3, ITT Population","−2.14 (−4.31, 0.04)"
same,HSS7 Change from baseline LS Mean (SE),"Week 3, ITT Population",−5.64 (0.82)
same,HSS7 Postbaseline Mean (SD),"Week 3, ITT Population",8.42 (6.15)
same,HSS7 % Change difference for rilzabrutinib vs.placebo LS Mean (95% CI),[4],−20.68 %
same,HSS7 % Change from baseline LS Mean (SE),[4],−38.38 (6.33) %
same,HSS7 Postbaseline Mean (SD),[4],8.55 (6.09)
same,HSS7 Postbaseline Mean (SD),"Week 3, Omalizumab-Naïve Population with Outlier Removed from Analysis",8.55 (6.09)
same,HSS7 % Change difference for rilzabrutinib vs.placebo LS Mean (95% CI),"Week 4, ITT population",−24.40 %
same,HSS7 % Change from baseline LS Mean (SE),"Week 4, ITT population",−43.10 (6.02) %
same,HSS7 Change difference for rilzabrutinib vs.placebo LS Mean (95% CI),"Week 4, ITT population","−2.71 (−4.92, −0.50)"
same,HSS7 Change from baseline LS Mean (SE),"Week 4, ITT population",−6.16 (0.83)
same,HSS7 Postbaseline Mean (SD),"Week 4, ITT population",7.50 (6.18)
same,HSS7 % Change difference for rilzabrutinib vs.placebo LS Mean (95% CI),[5],−27.23 %
same,HSS7 % Change from baseline LS Mean (SE),[5],−43.11 (6.45) %
same,HSS7 Postbaseline Mean (SD),[5],7.60 (6.00)
same,HSS7 Postbaseline Mean (SD),"Week 4, Omalizumab-Naïve Population with Outlier Removed from Analysis",7.60 (6.00)
same,HSS7 % Change difference for rilzabrutinib vs.placebo LS Mean (95% CI),"Week 5, ITT Population",−12.25 %
same,HSS7 % Change from baseline LS Mean (SE),"Week 5, ITT Population",−41.40 (5.88) %
same,HSS7 Change difference for rilzabrutinib vs.placebo LS Mean (95% CI),"Week 5, ITT Population","−1.29 (−3.57, 0.99)"
same,HSS7 Change from baseline LS Mean (SE),"Week 5, ITT Population",−5.93 (0.86)
same,HSS7 Postbaseline Mean (SD),"Week 5, ITT Population",7.91 (6.94)
same,HSS7 % Change difference for rilzabrutinib vs.placebo LS Mean (95% CI),[6],"−9.42 (−26.13, 7.29) %"
same,HSS7 % Change from baseline LS Mean (SE),[6],−39.98 (6.23) %
same,HSS7 Postbaseline Mean (SD),[6],8.34 (6.75)
same,HSS7 Postbaseline Mean (SD),"Week 5, Omalizumab-Naïve Population with Outlier Removed from Analysis",8.34 (6.75)
same,HSS7 % Change difference for rilzabrutinib vs.placebo LS Mean (95% CI),"Week 6, ITT Population",−15.72 %
same,HSS7 % Change from baseline LS Mean (SE),"Week 6, ITT Population",−39.79 (6.64) %
same,HSS7 Change difference for rilzabrutinib vs.placebo LS Mean (95% CI),"Week 6, ITT Population","−1.64 (−4.07, 0.79)"
same,HSS7 Change from baseline LS Mean (SE),"Week 6, ITT Population",−5.90 (0.92)
same,HSS7 Postbaseline Mean (SD),"Week 6, ITT Population",7.89 (6.65)
same,HSS7 % Change difference for rilzabrutinib vs.placebo LS Mean (95% CI),[7],−15.99 %
same,HSS7 % Change from baseline LS Mean (SE),[7],−40.02 (7.13) %
same,HSS7 Postbaseline Mean (SD),[7],8.17 (6.62)
same,HSS7 Postbaseline Mean (SD),"Week 6, Omalizumab-Naïve Population with Outlier Removed from Analysis",8.17 (6.62)
same,HSS7 % Change difference for rilzabrutinib vs.placebo LS Mean (95% CI),"Week 7, ITT Population",−22.31 %
same,HSS7 % Change from baseline LS Mean (SE),"Week 7, ITT Population",−46.27 (6.01) %
same,HSS7 Change difference for rilzabrutinib vs.placebo LS Mean (95% CI),"Week 7, ITT Population","−2.71 (−4.98, −0.44)"
same,HSS7 Change from baseline LS Mean (SE),"Week 7, ITT Population",−6.79 (0.86)
same,HSS7 Postbaseline Mean (SD),"Week 7, ITT Population",7.01 (6.25)
same,HSS7 % Change difference for rilzabrutinib vs.placebo LS Mean (95% CI),[8],−19.88 %
same,HSS7 % Change from baseline LS Mean (SE),[8],−45.57 (6.48) %
same,HSS7 Postbaseline Mean (SD),[8],7.34 (6.12)
same,HSS7 Postbaseline Mean (SD),"Week 7, Omalizumab-Naïve Population with Outlier Removed from Analysis",7.34 (6.12)
same,HSS7 % Change difference for rilzabrutinib vs.placebo LS Mean (95% CI),"Week 8, ITT population",−23.44 %
same,HSS7 % Change from baseline LS Mean (SE),"Week 8, ITT population",−52.52 (6.33) %
same,HSS7 Change difference for rilzabrutinib vs.placebo LS Mean (95% CI),"Week 8, ITT population","−2.74 (−5.15, −0.33)"
same,HSS7 Change from baseline LS Mean (SE),"Week 8, ITT population",−7.49 (0.91)
same,HSS7 Postbaseline Mean (SD),"Week 8, ITT population",6.41 (6.73)
same,HSS7 % Change difference for rilzabrutinib vs.placebo LS Mean (95% CI),[9],−25.21 %
same,HSS7 % Change from baseline LS Mean (SE),[9],−53.21 (6.86) %
same,HSS7 Postbaseline Mean (SD),[9],6.66 (6.70)
same,HSS7 Postbaseline Mean (SD),"Week 8, Omalizumab-Naïve Population with Outlier Removed from Analysis",6.66 (6.70)
same,HSS7 % Change difference for rilzabrutinib vs.placebo LS Mean (95% CI),"Week 9, ITT Population",−27.61 %
same,HSS7 % Change from baseline LS Mean (SE),"Week 9, ITT Population",−51.53 (6.66) %
same,HSS7 Change difference for rilzabrutinib vs.placebo LS Mean (95% CI),"Week 9, ITT Population","−3.04 (−5.57, −0.51)"
same,HSS7 Change from baseline LS Mean (SE),"Week 9, ITT Population",−7.16 (0.96)
same,HSS7 Postbaseline Mean (SD),"Week 9, ITT Population",6.69 (7.49)
same,HSS7 Postbaseline Mean (SD),"Week 9, Omalizumab-Naïve Population",7.01 (7.58)
same,HSS7 Postbaseline Mean (SD),"Week 9, Omalizumab-Naïve Population with Outlier Removed from Analysis",7.01 (7.58)
same,HSS7 % Change difference for rilzabrutinib vs.placebo LS Mean (95% CI),"Week 10, ITT Population",−24.54 %
same,HSS7 % Change from baseline LS Mean (SE),"Week 10, ITT Population",−52.53 (6.82) %
same,HSS7 Change difference for rilzabrutinib vs.placebo LS Mean (95% CI),"Week 10, ITT Population","−2.72 (−5.32, −0.11)"
same,HSS7 Change from baseline LS Mean (SE),"Week 10, ITT Population",−7.32 (0.99)
same,HSS7 Postbaseline Mean (SD),"Week 10, ITT Population",6.77 (7.18)
same,HSS7 Postbaseline Mean (SD),"Week 10, Omalizumab-Naïve Population",7.05 (7.27)
same,HSS7 Postbaseline Mean (SD),"Week 10, Omalizumab-Naïve Population with Outlier Removed from Analysis",7.05 (7.27)
same,HSS7 % Change difference for rilzabrutinib vs.placebo LS Mean (95% CI),"Week 11, ITT Population",−22.60 %
